Results published in the supplement of paper PMC10331698.
± gives the standard deviation of the averaged measurements.

Experiments:
Assay in all cases: level (log10 ratio to DMSO vehicle control); higher = higher biomarker level / cell amount than vehicle control
Conditions in all cases: in DMSO
[1] = compound: FC(F)(F)C(F)(F)C(F)(F)C(F)(F)C(F)(F)CCI [1-Iodo-1H,1H,2H,2H-perfluoroheptane]
Experimental: (§1)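 BioMAP Diversity Plus panel of 12 human primary cell co-culture systems (3C, 4H, LPS, SAg, BT, BF4T, BE3C, CASM3C, HDF3CGF, KF3CT, MyoF, Mphg). Compounds were added 1 h before stimulation and left for 24 h (MyoF 48 h; BT 72 h for soluble read-outs or 6 d for IgG). Biomarkers were read by ELISA, cytotoxicity by SRB, PBMC viability and proliferation by Alamar Blue. Each well value was divided by the mean of 8 DMSO control wells on the same plate and log10 transformed; duplicate blinded samples were tested at 4 concentrations.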

Heptafluorobutyramide = compound: NC(=O)C(F)(F)C(F)(F)C(F)(F)F [Heptafluorobutyramide]
Experimental: as §1

[2] = compound: O=C(O)C(F)(F)C(F)(F)C(F)(F)OC(F)(C(F)(F)F)C(F)(F)F [Perfluoro-4-isopropoxybutanoic acid]
Experimental: as §1

[3] = compound: C=C(C)C(=O)OCCC(F)(F)C(F)(F)C(F)(F)C(F)(F)C(F)(C(F)(F)F)C(F)(F)F [(Perfluoro-5-methylhexyl)ethyl 2-methylprop-2-enoate]
Experimental: as §1

[4] = compound: O=S(=O)(O)C(F)(F)C(F)(F)C(F)(F)C(F)(F)C(F)(F)C(F)(F)F [Perfluorohexanesulfonic acid]
Experimental: as §1

Perfluoropentanoic acid = compound: O=C(O)C(F)(F)C(F)(F)C(F)(F)C(F)(F)F [Perfluoropentanoic acid]
Experimental: as §1

[5] = compound: COC(=O)CCC(F)(F)C(F)(F)C(F)(F)C(F)(F)F [Methyl 2H,2H,3H,3H-perfluoroheptanoate]
Experimental: as §1

Test System | level (log10) ([1]; 6700 nM) | level (log10) ([1]; 20000 nM) | level (log10) ([1]; 60000 nM) | level (log10) (Heptafluorobutyramide; 6700 nM) | level (log10) (Heptafluorobutyramide; 20000 nM) | level (log10) (Heptafluorobutyramide; 60000 nM) | level (log10) ([2]; 6700 nM) | level (log10) ([2]; 20000 nM) | level (log10) ([2]; 60000 nM) | level (log10) ([3]; 6700 nM) | level (log10) ([3]; 20000 nM) | level (log10) ([4]; 6700 nM) | level (log10) ([4]; 20000 nM) | level (log10) ([4]; 60000 nM) | level (log10) (Perfluoropentanoic acid; 6700 nM) | level (log10) (Perfluoropentanoic acid; 20000 nM) | level (log10) (Perfluoropentanoic acid; 60000 nM) | level (log10) ([5]; 6700 nM) | level (log10) ([5]; 20000 nM) | level (log10) ([5]; 60000 nM)
3C:CD141/Thrombomodulin | -0.0385 ± 0.025 | -0.047 ± 0.031 | -0.031 ± 0.0057 | -0.004 ± 0.083 | -0.022 ± 0.099 | -0.047 ± 0.11 | -0.019 ± 0.0014 | -0.0365 ± 0.019 | -0.015 ± 0.0028 | 0.041 ± 0.033 | 0.005 ± 0.033 | -0.008 ± 0.035 | -0.015 ± 0.023 | -0.004 ± 0.0028 | 0.024 ± 0.021 | 0.0345 ± 0.005 | 0.0685 ± 0.042 | -0.0355 ± 0.032 | -0.017 ± 0.0042 | -0.0225 ± 0.013
lMphg:sIL-10 | 0.003 ± 0.033 | 0.01 ± 0.017 | -0.114 ± 0.062 | 0.002 ± 0.05 | -0.0445 ± 0.071 | -0.011 ± 0.058 | -0.116 ± 0.018 | -0.04 ± 0.047 | -0.187 ± 0.031 | 0.0215 ± 0.029 | -0.0195 ± 0.12 | -0.0345 ± 0.061 | -0.073 ± 0.1 | -0.239 ± 0.025 | -0.017 ± 0.013 | -0.075 ± 0.025 | -0.0845 ± 0.05 | -0.0515 ± 0.029 | -0.117 ± 0.12 | 0.0005 ± 0.037
HDF3CGF:CCL2/MCP-1 | 0.0085 ± 0.0035 | 0.02 ± 0.021 | -0.013 ± 0.035 | 0.0005 ± 0.04 | 0.0055 ± 0.036 | 0.0185 ± 0.066 | 0.013 ± 0.0028 | 0.0335 ± 0.019 | 0.0425 ± 0.0021 | -0.0335 ± 0.0092 | -0.024 ± 0.023 | 0.009 ± 0.0057 | 0.007 ± 0.014 | 0.021 ± 0.031 | -0.03 ± 0.017 | -0.054 ± 0.013 | -0.022 ± 0.048 | -0.039 ± 0.021 | -0.0375 ± 0.06 | -0.014 ± 0.014
HDF3CGF:Collagen III | 0.0695 ± 0.026 | -0.008 ± 0.12 | -0.0595 ± 0.022 | -0.017 ± 0.014 | -0.006 ± 0.013 | -0.0145 ± 0.005 | -0.02 ± 0.051 | -0.0115 ± 0.011 | -0.0025 ± 0.057 | -0.0195 ± 0.05 | 0.0105 ± 0.05 | -0.0005 ± 0.022 | 0.0005 ± 0.015 | 0.0105 ± 0.043 | 0.005 ± 0.014 | 0.01 ± 0.017 | 0.033 ± 0.034 | 0.0065 ± 0.016 | 0.0095 ± 0.00071 | 0.0105 ± 0.015
CASM3C:CD106/VCAM-1 | 0.0215 ± 0.005 | -0.0015 ± 0.0078 | -0.063 ± 0.0014 | -0.0215 ± 0.053 | -0.0085 ± 0.033 | -0.0265 ± 0.059 | -0.003 ± 0.0071 | -0.016 ± 0.016 | -0.007 ± 0.021 | -0.017 ± 0.014 | -0.0175 ± 0.026 | -0.0145 ± 0.023 | -0.0175 ± 0.016 | -0.047 ± 0.024 | -0.0225 ± 0.0078 | -0.0565 ± 0.029 | -0.009 ± 0.0057 | -0.021 ± 0.027 | -0.019 ± 0.0071 | -0.0085 ± 0.005
KF3CT:CCL2/MCP-1 | 0.0005 ± 0.015 | -0.034 ± 0.028 | -0.0465 ± 0.064 | -0.006 ± 0.0014 | -0.009 ± 0.013 | 0.0165 ± 0.057 | 0.0235 ± 0.039 | 0.032 ± 0.018 | 0.023 ± 0.052 | -0.0235 ± 0.0092 | -0.0125 ± 0.037 | 0.0075 ± 0.032 | -0.001 ± 0.013 | 0.0205 ± 0.023 | 0.002 ± 0.02 | -0.025 ± 0.025 | 0.0215 ± 0.05 | -0.0185 ± 0.035 | -0.0515 ± 0.026 | 0.013 ± 0.048
MyoF:SRB | 0.001 ± 0.0099 | 0.0085 ± 0.015 | 0.0085 ± 0.025 | -0.011 ± 0.017 | -0.0035 ± 0.0078 | -0.0005 ± 0.005 | -0.0055 ± 0.0021 | 0.0015 ± 0.00071 | -0.0035 ± 0.0064 | 0.001 ± 0.014 | -0.0035 ± 0.0078 | 0.003 ± 0.0057 | -0.0045 ± 0.0035 | -0.0165 ± 0.021 | 0.003 ± 0.0028 | -0.009 ± 0.0014 | -0.004 ± 0.0057 | -0.004 ± 0.0028 | 0.0065 ± 0.0035 | 0.0065 ± 0.0064
MyoF:Collagen I | -0.0065 ± 0.012 | 0.007 ± 0.0042 | 0.0375 ± 0.0035 | -0.015 ± 0.013 | -0.0105 ± 0.00071 | -0.014 ± 0.0099 | -0.0045 ± 0.0035 | -0.0035 ± 0.021 | 0.0075 ± 0.016 | -0.0325 ± 0.037 | -0.037 ± 0.02 | -0.0035 ± 0.023 | 0.008 ± 0.025 | 0.019 ± 0.028 | -0.0065 ± 0.0092 | -0.008 ± 0.0085 | 0.0065 ± 0.015 | 0.0055 ± 0.016 | 0.0035 ± 0.011 | -0.004 ± 0.021
CASM3C:IL-6 | -0.0145 ± 0.022 | -0.044 ± 0.0057 | -0.017 ± 0.018 | -0.0275 ± 0.033 | -0.0105 ± 0.012 | 0.013 ± 0.042 | -0.0055 ± 0.019 | -0.002 ± 0.025 | 0.0285 ± 0.084 | -0.035 ± 0.0042 | 0.0345 ± 0.028 | -0.027 ± 0.017 | -0.0225 ± 0.0021 | -0.0025 ± 0.036 | -0.02 ± 0.028 | -0.028 ± 0.027 | 0.014 ± 0.047 | -0.019 ± 0.021 | -0.025 ± 0.0028 | 0.0005 ± 0.028
HDF3CGF:CXCL8/IL-8 | 0.001 ± 0.0099 | 0.011 ± 0.0028 | 0.0225 ± 0.0064 | -0.003 ± 0.0057 | 0.002 ± 0.0014 | 0.0045 ± 0.012 | 0.0015 ± 0.00071 | 0.0135 ± 0.0035 | 0.0035 ± 0.0021 | -0.004 ± 0.0042 | 0.0025 ± 0.005 | 0.0045 ± 0.013 | 0.0035 ± 0.015 | 0.0065 ± 0.016 | 0.003 ± 0.0057 | -0.006 ± 0.0028 | 0.002 ± 0.023 | -0.006 ± 0.013 | -0.01 ± 0.024 | -0.0035 ± 0.0021
lMphg:CCL3/MIP-1alpha | 0.0165 ± 0.032 | 0.003 ± 0.021 | 0.0185 ± 0.08 | -0.0235 ± 0.039 | -0.035 ± 0.024 | -0.0015 ± 0.00071 | -0.035 ± 0.0085 | -0.0355 ± 0.029 | -0.005 ± 0.037 | -0.008 ± 0.034 | -0.0125 ± 0.044 | -0.006 ± 0.04 | 0.0055 ± 0.037 | 0.045 ± 0.034 | 0.008 ± 0.059 | -0.006 ± 0.055 | 0.006 ± 0.055 | -0.0315 ± 0.005 | -0.013 ± 0.0028 | -0.004 ± 0.045
CASM3C:M-CSF | -0.0055 ± 0.035 | -0.0145 ± 0.011 | -0.0265 ± 0.0092 | -0.0495 ± 0.0035 | -0.0375 ± 0.018 | 0.022 ± 0.073 | 0.0165 ± 0.032 | 0.0075 ± 0.039 | 0.0155 ± 0.043 | -0.009 ± 0.0085 | 0.0195 ± 0.036 | -0.007 ± 0.028 | -0.012 ± 0.014 | 0.0305 ± 0.00071 | -0.0055 ± 0.016 | -0.004 ± 0.017 | 0.0045 ± 0.032 | -0.0155 ± 0.016 | -0.031 ± 0.021 | 0.013 ± 0.054
HDF3CGF:CD54/ICAM-1 | -0.0065 ± 0.013 | -0.0215 ± 0.00071 | -0.0195 ± 0.0064 | -0.0045 ± 0.021 | 0.0035 ± 0.0092 | -0.001 ± 0.0099 | -0.009 ± 0.0071 | -0.01 ± 0.0028 | -0.031 ± 0.017 | 0.0005 ± 0.016 | -0.0045 ± 0.026 | -0.0195 ± 0.00071 | -0.0325 ± 0.00071 | -0.0345 ± 0.0035 | 0.039 ± 0.054 | 0.035 ± 0.033 | 0.0485 ± 0.046 | -0.0095 ± 0.0092 | 0.012 ± 0.0028 | -0.0025 ± 0.028
